Measured values as given in publication PMC12867150, “A fungi-derived cyclic peptide enhances Th9-mediated antitumor immunity by targeting ZAP70 and SREBP1” (The Journal of Clinical Investigation, 2025).
Where “and” joins values, the source holds several entries; their conditions need not be identical. Equal entries are not always repeated.

Assays:
[1] = system: transferred CD45.1+ OT-II Th9 cells; test: Flow cytometry of transferred CD45.1+ OT-II Th9 cells in spleen, LN, tumor (Figure 2B-C, S1C-E); format: in vivo, mouse; settings: for Frequencies of transferred CD45.1⁺ OT-II Th9 cells among CD45⁺ cells in LN: Supplemental Figure 1D left; for number of transferred CD45.1⁺ OT-II Th9 cells among CD45⁺ cells in LN: Supplemental Figure 1D right; for CD45.1+ gate number: representative flow plot
Experimental: C57BL/6 mice were subcutaneously injected with 5 × 10^5 B16-OVA melanoma cells. Five days after tumor implantation, mice received an intravenous infusion of 2 × 10^6 in vitro–differentiated Th9 cells (cultured for 5 days), which were derived from OT-II CD45.1 donor mice, accompanied by 4 × 10^5 OVA peptide–pulsed DCs via the tail vein. To enhance T cell engraftment and facilitate lymphodepletion, a single intraperitoneal injection of cyclophosphamide (200 mg/kg, Sigma, catalog C0768) was administered 1 day prior to T cell transfer. Mice were euthanized at designated time points for the collection and analysis of spleens, tumor-draining lymph nodes, and tumor tissues.
Details regarding staining panels (human and mouse), reagents (including clones and catalog numbers), acquisition settings, compensation/controls, and analysis procedures are provided in Supplemental Methods.
BioLegend, Cat. No. 422301 or Mouse TruStain FcX™, BioLegend, Cat. No. 101319) for 10 minutes at 4°C. For surface marker detection, cells were stained with fluorochrome-conjugated monoclonal antibodies in 96-well V-bottom plates and incubated on ice for 30 minutes. After staining, cells were washed twice and resuspended in FACS buffer for analysis.
Prior to intracellular cytokine staining, cells were restimulated for 4 hours with PMA (Absin, Cat. No. abs9107), ionomycin (Sigma-Aldrich, Cat. No. I0634), and brefeldin A (MedChemExpress, Cat. No. HY-16592). For intracellular cytokine staining, cells were first surface-stained as described above, then fixed and permeabilized using the BD Cytofix/Cytoperm™ kit (BD Biosciences, Cat. No. 554714) according to the manufacturer ’s protocol. Intracellular proteins were stained with directly conjugated antibodies targeting IL-9, IL-17a, IL-4, IFN-γ, TNF-α, FOXP3, p-ZAP70, Perforin, and […]
Antibodies used for mouse samples included those against IL-9 (PE, clone RM9A4, Biolegend, Cat. No. 514104), IFN-γ (PE, clone XMG1.2, Biolegend, Cat. No.
Cat. No. 103138), CD4 (APC/Cy7, clone E-AB-F1353UJ, Elabscience, Cat. No.
AF18028), CD8α (PerCP/Cy5.5, clone E-AB-F1104UJ, Elabscience, Cat. No. […]
clone E-AB-F1187UH, Elabscience, Cat. No. AF19854), TNF-α (BV421, clone MP6-XT22, Biolegend, Cat. No. 506328), FOXP3 (PE, clone FJK-16s, eBioscience, Cat. No.
Perforin (APC, clone S16009A, Biolegend, Cat. No. 154303) and Granzyme B (APC, […]
clone QA16A02, Biolegend, Cat. No. 372203). […]
Figure S1. EpA enhances immune responses. […]
Representative flow-cytometric plots showing transferred CD45.1⁺ OT-II Th9 cells in spleens (C), tumor-draining lymph nodes (LNs) (D), and tumors (E); frequencies Figure S1 and absolute numbers of CD45.1⁺ OT-II Th9 cells in LNs are quantified in (D). (F– […]
Statistical analysis was performed using two-way ANOVA with Tukey’s post hoc test (A), one-way ANOVA with Tukey’s post hoc test (B) or two-tailed unpaired Student’s t-test (D and G–M). ns, not significant. *p < 0.05, **p < 0.01, ****p < 0.0001.
(also on this page, place not known: Mouse weight (g) CtrlEpA CtrlEpA CtrlEpA0 I CD45.1+ T cells (%) CtrlEpA CD4+ T cells (%) CtrlEpA CtrlEpA CtrlEpA FSC CD8 CD8 FSC FSC FSC BNumber of CD45.1+ T cells (×103 per mgĎ Number of CD4+ T cells (×104 per mgĎ DC (%)NK cells (%) NK cells (%) DC (%) Number of DC (×103 per mg) Number of NK cells (×105) Number of NK cells (×103 per mg) Number of DC (×105) FSC FSC FSC CD8 CtrlEpA CtrlEpA CtrlEpA CD8+ T cells (%) Number of CD8+ T cells (×104 per mgĎ nsns ns nsns ns 40 IL-6 (pg/ml)) […]

[2] = system: Th9 cells; test: Seahorse oxygen consumption rate, mitochondrial stress test (Figure 4F-H); format: cell-based, mouse
Experimental: After stimulation, cells were washed, resuspended in Seahorse XF assay medium (Agilent Technologies; pH 7.40–7.45, catalog 103576-100) and seeded at 5 × 10^5 cells per well in Seahorse XF96 microplates. Plates were centrifuged at 400 × g for 5 minutes to promote adherence and monolayer formation, and all conditions were tested in quadruplicate.
Oxidative phosphorylation was assessed on the same instrument using the XFe96 Mitochondrial Stress Test Kit (Agilent Technologies, catalog 103015-100). Oligomycin (1.5 μM), FCCP (0.5 μM), and rotenone plus antimycin A (0.5 μM each) were injected sequentially to measure OCR as a proxy for oxidative phosphorylation. The mitochondrial stress response was derived from OCR values obtained before and after each injection.

[3] = spleens, individual mice, n = 4

Q: Which results are given for anteiso-C15 Leu7 surfactin [EpA]?
A: Frequencies of transferred CD45.1⁺ OT-II Th9 cells among CD45⁺ cells in LN ([1]; LN, replicate 1): 25.5%; Frequencies of transferred CD45.1⁺ OT-II Th9 cells among CD45⁺ cells in LN ([1]; LN, replicate 2): 16.2%; Frequencies of transferred CD45.1⁺ OT-II Th9 cells among CD45⁺ cells in LN ([1]; LN, replicate 3): 15.5%; Frequencies of transferred CD45.1⁺ OT-II Th9 cells among CD45⁺ cells in LN ([1]; LN, replicate 4): 16.6%; number of transferred CD45.1⁺ OT-II Th9 cells among CD45⁺ cells in LN ([1]; LN, replicate 1): 12444.4; number of transferred CD45.1⁺ OT-II Th9 cells among CD45⁺ cells in LN ([1]; LN, replicate 2): 12569.8; number of transferred CD45.1⁺ OT-II Th9 cells among CD45⁺ cells in LN ([1]; LN, replicate 3): 11818.2; number of transferred CD45.1⁺ OT-II Th9 cells among CD45⁺ cells in LN ([1]; LN, replicate 4): 11251.4; CD45.1+ gate number ([1]; LN, Figure S1D): 15.5%; CD45.1+ gate number ([1]; Spleen, Figure S1C): 11.7%; CD45.1+ gate number ([1]; Tumor, Figure S1E): 6.7%; expansion of transferred cells ([1]; lymph nodes, result in words): moderately in the lymph nodes; expansion of transferred cells ([1]; spleen, result in words): expanded robustly in the spleen; Total CD45.1(%) among CD45+ cells [1, 3]: 11.1% and 9.13% and 7.88% and 11.8%; number of CD45.1+ T cells [1, 3]: 854404 and 834158 and 848241 and 1565169; CD45.1 (%) among CD4+ cells ([1]; tumors, individual mice, n = 4): 6.68% and 1.49% and 0.81% and 0.8%; number of CD45.1+ OT-II Th9 cells ([1]; tumors, individual mice, n = 4): 16 and 22 and 24 and 15; absolute number of transferred cells ([1]; tumors, result in words): markedly increased; frequency of transferred cells ([1]; tumors, result in words): remained comparable; OCR, basal and maximal respiration ([2]; EpA 10 μM, 4 days, result in words): higher basal and maximal respiration; Basal Oxygen Consumption Rate ([2]; Figure 4G, individual replicates, (n = 5), in pmol/min (unit assumed)): 169.53 and 169.91 and 173.53 and 152.33 and 158.62; Max Oxygen Consumption Rate ([2]; Figure 4H, individual replicates, (n = 5), in pmol/min (unit assumed)): 295.4 and 261.85 and 290.65 and 188.88 and 233.85
